Assay [1] addresses T1, Human FXa (Homo sapiens, UniProt P00742).
T1 construct: Human FXa [Enzyme research Laboratories (USA)] enzyme; purchased Enzyme Research Laboratories (USA)
Description: Determination of anti-factor Xa (FXa) activity, synthetic substrate S-2222. Type of assay: biochemical. The following applies: S-2222, 37° C., pH 8.4, read-out: Experimental Example 1: anti-FXa activity, IC50. The method, then:
Determination of Anti-factor Xa (FXa) Activity
Human FXa [Enzyme research Laboratories (USA)] enzyme (40 μl, 0.16U/ml) and test compounds (40 l) adjusted to various concentrations were incubated in 0.1M Tris (Tris-hydroxymethyl-aminomethane) buffer (pH 8.4) containing 0.2M sodium chloride (herein to be referred to as 0.1 M tris-0.2M NaCl buffer) (40 μl) at 37° C. for 10 min. A synthetic substrate S-2222 (Daiichi Pure Chemical (Tokyo, Japan), 40 μl) adjusted to 0.8 mM was added and the mixture was incubated at 37° C. for 10 min. The reaction was stopped by addition of 60% acetic acid (40 μl) and absorbance at 405 nm was measured by Model 3550 (BIO-RAD). For the control, the solvent was used instead of the test compound.
Target sequence in this assay (P00742 235-488 limits assumed): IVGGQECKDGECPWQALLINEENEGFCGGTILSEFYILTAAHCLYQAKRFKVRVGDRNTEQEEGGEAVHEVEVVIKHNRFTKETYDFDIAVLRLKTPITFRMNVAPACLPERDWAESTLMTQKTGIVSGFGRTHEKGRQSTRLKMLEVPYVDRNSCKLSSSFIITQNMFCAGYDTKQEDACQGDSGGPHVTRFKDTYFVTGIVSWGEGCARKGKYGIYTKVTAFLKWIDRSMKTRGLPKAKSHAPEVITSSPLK
Target sequence in this assay (P00742 41-179 partner limits assumed): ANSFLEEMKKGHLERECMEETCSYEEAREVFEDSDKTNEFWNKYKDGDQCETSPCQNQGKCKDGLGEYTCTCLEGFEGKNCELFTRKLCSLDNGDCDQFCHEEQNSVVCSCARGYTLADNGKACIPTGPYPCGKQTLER

The next assay deals with T2, Human FIIa (Homo sapiens, UniProt P00734).
T2 construct: purchased Sigma
Description: Determination of anti-factor IIa (FIIa) activity, synthetic substrate S-2238. Type of assay: biochemical. The following applies: S-2238, 37° C., pH 8.4, read-out: Experimental Example 2: anti-FIIa activity, IC50.

In assay [2] the target is T1, Human FXa. Description: Intravenous administration test in mouse, human FXa inhibitory activity in serum. Type of assay: in vivo. The following applies: ICR mice, i.v., mean ± S.D., n = 3. The method, then: Intravenous Administration Tests in Mouse
A test compound dissolved in physiological saline was intravenously administered to ICR mice (body weight 20-30 g, 4-6 weeks old) and the activity of the test compound was evaluated based on the human FXa inhibitory activity in serum as an indicator.
At 10, 30, 60, 120 min from the intravenous administration, blood was taken from the eye ground using a hematocrit tube. The blood was centrifuged at 9000 G for 5 min and the obtained serum was used for the determination.
(§1) Human FXa inhibitory activity was measured as follows. Human FXa [Enzyme research Laboratories (USA)] enzyme (40 μl, 0.5 U/ml) and a 4-fold diluted plasma sample (40 μl) were incubated in 0.1M Tris-0.2M NaCl buffer (pH 8.4) (40 μl) at 37° C. for 10 min. A synthetic substrate S-2222 (Daiichi Pure Chemical (Tokyo, Japan), 40 μl) adjusted to 0.8 mM was added and the mixture was incubated at 37° C. for 5 min. The reaction was stopped by addition of 60% acetic acid (40 μl) and absorbance at 405 nm was measured by Model 3550 (BIO-RAD). For the control, serum or plasma obtained prior to blood sampling was used for measurement. Human FXa inhibitory activity was calculated as inhibition percentage (%) against control.
Target sequence in this assay (P00742 235-488 limits assumed): as the sequence (P00742 235-488 limits assumed) above
Target sequence in this assay (P00742 41-179 limits assumed): as the sequence (P00742 41-179 partner limits assumed) above

Assay [3] addresses T1, Human FXa. In words: Oral administration test in mouse, human FXa inhibitory activity in serum. Type of assay: in vivo. The following applies: ICR mice, mean ± S.D., n = 3. The protocol: as §1
Target sequence in this assay (P00742 235-488 limits assumed): as the sequence (P00742 235-488 limits assumed) above
Target sequence in this assay (P00742 41-179 limits assumed): as the sequence (P00742 41-179 partner limits assumed) above
Oral Administration Tests in Mouse
A test compound dissolved in distilled water was orally administered to ICR mice (body weight 20-30 g, 4-6 weeks old) and the activity of the test compound was evaluated based on the human FXa inhibitory activity in serum as an indicator.
At 30, 60, 120, 180 min from the oral administration, blood was taken from the eye ground using a hematocrit tube. The blood was centrifuged at 9000 G for 5 min and the obtained serum was used for the determination. Human FXa inhibitory activity was determined in the same manner as in the test by intravenous administration.

SMILES strings stand for the structures. Where a name gives a salt, the structure may show the parent alone. A value given as a limit tells only on which side of the number the result lay.

A word on the IC50: it is the concentration needed to halve the response being measured. A word on the inhibition: it is how much of the control response was suppressed. Low readings indicate little suppression, high ones strong suppression. As to `COC(=O)c1ccc(C(=O)N(Cc2nc3cc(C(=N)N)ccc3n2CC(=O)NC2CCCCC2)c2ccc(OC3CCN(C(=N)N)CC3)cc2)cc1` [Example 64, 2-[N-[4-(1-Amidinopiperidin-4-yloxy)phenyl]-N-(4-methoxycarbonyl-benzoyl)aminomethyl]-1-(cyclohexylcarbamoylmethyl)benzimidazole-5-carboxamidine Dihydrochloride], the figures for the IC50 at Human FXa [1] and on Human FIIa were 100 nM and > 10 µM, respectively. Besides, the inhibition at 1 mg/kg against Human FXa [2] (10 minutes) stood at 55 ± 2%; at Human FXa [2] (30 minutes), 43 ± 5%; on Human FXa [2] (60 minutes) it was 28 ± 6%.
On to `CC(=N)N1CCC(Oc2ccc(N(Cc3nc4cc(C(=N)N)ccc4n3CC(=O)Nc3ccc(OCc4ccccc4)cc3)C(=O)c3ccc(C(=O)O)cc3)cc2)CC1` [Example 18, 4-[N-[5-Amidino-1-(4-benzyloxyphenylcarbamoylmethyl)benzimidazol-2-ylmethyl]-N-[4-(1-acetimidoylpiperidin-4-yloxy)phenyl]carbamoyl]benzoic Acid Dihydrochloride], for which the IC50 was 10 nM on Human FXa [1] and > 10 µM on Human FIIa. Further, the inhibition at 1 mg/kg was determined as 73 ± 1% against Human FXa [2] (10 minutes), 60 ± 4% on Human FXa [2] (30 minutes), 40 ± 3% on Human FXa [2] (60 minutes) and 23 ± 5% at Human FXa [2] (120 minutes).
With `CC(=N)N1CCC(Oc2ccc(N(Cc3nc4cc(C(=N)N)ccc4n3CC(=O)NC3CCCCC3)C(=O)c3ccc(C(=O)O)cc3)cc2)CC1` [Example 63, N-[5-Amidino-1-(cyclohexylcarbamoylmethyl)benzimidazol-2-ylmethyl]-N-[4-(1-acetimidoylpiperidin-4-yloxy)phenyl]carbamoylbenzoic Acid], the figures for the IC50 at Human FXa [1] and on Human FIIa were 10 nM and > 10 µM, respectively. Further, the inhibition at 0.3 mg/kg was found to be 32 ± 2% against Human FXa [2] (10 minutes), 16 ± 3% on Human FXa [2] (30 minutes), 4 ± 3% on Human FXa [2] (60 minutes) and 1 ± 3% at Human FXa [2] (120 minutes). Also, the inhibition at 1 mg/kg on Human FXa [2] (10 minutes) was determined as 55 ± 3%; against Human FXa [2] (30 minutes), 46 ± 5%; against Human FXa [2] (60 minutes), 16 ± 7%; on Human FXa [2] (120 minutes), 3 ± 6%. For the same molecule, the inhibition at 10 mg/kg against Human FXa [3] (30 minutes) came out at 22 ± 6%; against Human FXa [3] (60 minutes), 14 ± 9%; at Human FXa [3] (120 minutes) it was 12 ± 10%; at Human FXa [3] (180 minutes), 12 ± 4%.
For `N=C(N)c1ccc2c(c1)nc(CN(C(=O)c1ccc(C(=O)O)cc1)c1ccc(OC3CCN(C(=N)N)CC3)cc1)n2CC(=O)NC1CCCCC1` [Example 65, N-[5-Amidino-1-(cyclohexylcarbamoylmethyl)benzimidazol-2-ylmethyl]-N-[4-(1-amidinopiperidin-4-yloxy)phenyl]carbamoylbenzoic Acid Dihydrochloride], the IC50 at Human FXa [1] was 20 nM; at Human FIIa, > 10 µM. Besides, the figures for the inhibition at 1 mg/kg against Human FXa [2] (10 minutes), against Human FXa [2] (30 minutes) and on Human FXa [2] (60 minutes) were 55 ± 1%, 34 ± 2% and 17 ± 2%, respectively.
In the case of `CCOC(=O)C1(COc2ccc3c(c2)CN(C(=N)N)CC3)CCN(c2cc(C)nc(C)c2)CC1` [Example 10, 4-(2-Amidino-1,2,3,4-tetrahydroisoquinolin-7-yloxymethyl)-1-(2,6-dimethylpyridin-4-yl)piperidine-4-carboxylic Acid Ethyl Ester Dihydrochloride], the IC50 was 700 nM on Human FXa [1] and > 10 µM on Human FIIa.
`N=C(N)N1CCc2ccc(OCCC3(C(=O)O)CCN(c4ccncc4)CC3)cc2C1` [Example 16, 4-[2-(2-Amidino-1,2,3,4-tetrahydroisoquinolin-7-yloxy)ethyl]-1-(pyridin-4-yl)piperidine-4-carboxylic Acid Dihydrochloride]: the IC50 on Human FXa [1] is 200 nM; on Human FIIa, > 10 µM.
`N=C(N)N1CCc2ccc(SCC3(C(=O)O)CCN(c4ccncc4)CC3)cc2C1` [Example 43, 4-(2-Amidino-1,2,3,4-tetrahydroisoquinolin-7-ylthiomethyl)-1-(pyridin-4-yl)piperidine-4-carboxylic Acid Dihydrochloride]: the IC50 was 400 nM at Human FXa [1] and > 10 µM on Human FIIa.
Taken in the same sequence, the figures for `CC(=N)N1CCC(Oc2ccc(OCc3nc4cc(C(=N)N)ccc4n3CC(=O)NC[C@H]3CC[C@H](C(=O)O)CC3)cc2)CC1` [Example 53, trans-4-[2-[4-(1-Acetimidoylpiperidin-4-yloxy)phenoxymethyl]-5-amidinobenzimidazol-1-ylacetylaminomethyl]cyclohexanecarboxylic Acid Dihydrochloride] were 500 nM and > 10 µM.
Consider `N=C(N)N1CCc2ccc(OCC3(C(=O)O)CCN(c4ccncn4)CC3)cc2C1` [Example 14, 4-(2-Amidino-1,2,3,4-tetrahydroisoquinolin-7-yloxymethyl)-1-(pyrimidin-4-yl)piperidine-4-carboxylic Acid Dihydrochloride], for which the IC50 at Human FXa [1] was 100 nM; on Human FIIa, > 10 µM.
On to `CCN=C(N)N1CCC(Oc2ccc(N(Cc3nc4cc(C(=N)N)ccc4n3CC(=O)NC3CCCCC3)C(=O)c3ccc(C(=O)O)cc3)cc2)CC1` [Example 112, N-[5-Amidino-1-(cyclohexylcarbamoylmethyl)benzimidazol-2-ylmethyl]-N-[4-[1-(N-ethylamidino)piperidin-4-yloxy]phenyl]carbamoylbenzoic Acid Dihydrochloride], for which the IC50 on Human FXa [1] is 20 nM; on Human FIIa, > 10 µM. The inhibition at 1 mg/kg at Human FXa [2] (10 minutes) came to 49 ± 1%; at Human FXa [2] (30 minutes) it was 41 ± 8%; at Human FXa [2] (60 minutes) it was 23 ± 11%.
`N=C(N)c1ccc2ccc(OCC3(C(=O)O)CCN(c4ccncc4)CC3)c(Cl)c2c1` [Example 39, 4-(2-Amidino-8-chloronaphthalen-7-yloxymethyl)-1-(pyridin-4-yl)piperidine-4-carboxylic Acid Dihydrochloride]: the IC50 on Human FXa [1] was 500 nM; at Human FIIa, > 10 µM.
On to `N=C(N)N1CCc2ccc(OCC3CCN(c4ccncc4)CC3)cc2C1` [Example 1, 7-[1-(Pyridin-4-yl)piperidin-4-ylmethoxy]-1,2,3,4-tetrahydroisoquinoline-2-carboxamidine Dihydrochloride], for which the IC50 on Human FXa [1] is 60 nM; on Human FIIa, > 10 µM.
As to `CCOC(=O)CN(Cc1nc2cc(C(=N)N)ccc2n1CC(=O)NC1CCCCC1)c1ccc(OC2CCN(C(C)=N)CC2)cc1` [Example 62, 2-[N-[4-(1-Acetimidoylpiperidin-4-yloxy)phenyl]-N-ethoxycarbonyl-methylaminomethyl]-1-(cyclohexylcarbamoylmethyl)benzimidazole-5-carboxamidine Dihydrochloride], the IC50 was 100 nM at Human FXa [1] and > 10 µM at Human FIIa.

The values are drawn from patent publication US6562828B1, “Amidine compounds” (Japan Tobacco Inc., priority 1998, dated 2003).
